The values that follow come from ChEMBL document CHEMBL1127434, “Discovery of nanomolar ligands for 7-transmembrane G-protein-coupled receptors from a diverse N-(substituted)glycine peptoid library” (J Med Chem, 1994).

Assay [1] has as its target T1, Adrenergic receptor alpha-1 (Rattus norvegicus, UniProt P15823+P23944+P43140).
T1 sequence (P15823 whole entry): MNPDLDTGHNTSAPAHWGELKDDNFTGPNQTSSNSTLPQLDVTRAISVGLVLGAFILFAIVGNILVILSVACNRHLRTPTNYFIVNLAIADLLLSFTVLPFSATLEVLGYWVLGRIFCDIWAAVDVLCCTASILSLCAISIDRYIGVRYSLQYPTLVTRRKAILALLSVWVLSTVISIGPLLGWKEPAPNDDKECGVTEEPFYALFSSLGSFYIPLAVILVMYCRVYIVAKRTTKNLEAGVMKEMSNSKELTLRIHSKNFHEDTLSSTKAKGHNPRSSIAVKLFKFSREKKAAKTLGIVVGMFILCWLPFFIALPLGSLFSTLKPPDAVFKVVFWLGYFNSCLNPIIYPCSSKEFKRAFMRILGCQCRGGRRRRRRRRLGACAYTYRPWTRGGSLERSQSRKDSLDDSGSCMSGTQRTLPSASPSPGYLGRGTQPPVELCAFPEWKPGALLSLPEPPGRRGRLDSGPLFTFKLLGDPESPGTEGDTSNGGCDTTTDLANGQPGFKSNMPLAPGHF
T1 sequence (P23944 whole entry): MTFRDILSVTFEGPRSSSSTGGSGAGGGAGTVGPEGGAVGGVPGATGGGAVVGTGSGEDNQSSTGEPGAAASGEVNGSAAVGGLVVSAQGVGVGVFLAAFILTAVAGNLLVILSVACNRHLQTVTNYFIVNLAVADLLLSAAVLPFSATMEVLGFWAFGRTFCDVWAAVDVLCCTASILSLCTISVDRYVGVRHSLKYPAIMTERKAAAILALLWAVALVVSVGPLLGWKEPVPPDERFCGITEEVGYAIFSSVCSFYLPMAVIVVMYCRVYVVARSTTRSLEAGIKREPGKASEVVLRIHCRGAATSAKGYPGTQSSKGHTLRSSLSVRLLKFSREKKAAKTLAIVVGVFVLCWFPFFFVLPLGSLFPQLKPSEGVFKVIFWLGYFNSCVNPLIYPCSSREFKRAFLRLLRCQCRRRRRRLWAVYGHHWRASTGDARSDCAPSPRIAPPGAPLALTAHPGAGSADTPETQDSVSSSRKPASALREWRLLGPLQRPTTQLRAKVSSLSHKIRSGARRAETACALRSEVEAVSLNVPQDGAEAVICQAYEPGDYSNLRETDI
T1 sequence (P43140 whole entry): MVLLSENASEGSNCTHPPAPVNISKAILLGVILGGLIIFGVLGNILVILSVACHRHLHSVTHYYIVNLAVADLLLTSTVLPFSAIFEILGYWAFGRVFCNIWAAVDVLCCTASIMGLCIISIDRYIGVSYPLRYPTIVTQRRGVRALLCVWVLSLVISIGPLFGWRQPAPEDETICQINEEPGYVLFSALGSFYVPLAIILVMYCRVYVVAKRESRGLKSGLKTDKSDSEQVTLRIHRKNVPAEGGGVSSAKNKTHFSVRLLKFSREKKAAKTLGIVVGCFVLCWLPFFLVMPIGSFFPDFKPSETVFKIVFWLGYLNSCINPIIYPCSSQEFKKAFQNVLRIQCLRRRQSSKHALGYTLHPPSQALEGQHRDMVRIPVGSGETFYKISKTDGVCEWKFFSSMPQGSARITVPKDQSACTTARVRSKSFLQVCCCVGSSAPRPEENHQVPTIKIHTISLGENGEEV
Description: Compound was evaluated for binding affinity towards alpha-1 adrenergic receptors from combinatorial peptoid library

For another assay, the target named is Mu-type opioid receptor (Rattus norvegicus, UniProt P33535). The assay can be described thus: Compound was evaluated for binding affinity towards mu-specific opiate receptor from rat brain membrane using [3H]DAMGO.
The target in assay [2] is T1, Adrenergic receptor alpha-1. The assay can be described thus: Compound was evaluated for its binding affinity against alfa1 adrenergic receptors. Type of assay: protein assay.
Assay [3] has the same target. The assay can be described thus: Compound was evaluated for its binding affinity against alpha-1 adrenergic receptors. The format is protein assay.

Sequence of Mu-type opioid receptor (P33535 whole entry): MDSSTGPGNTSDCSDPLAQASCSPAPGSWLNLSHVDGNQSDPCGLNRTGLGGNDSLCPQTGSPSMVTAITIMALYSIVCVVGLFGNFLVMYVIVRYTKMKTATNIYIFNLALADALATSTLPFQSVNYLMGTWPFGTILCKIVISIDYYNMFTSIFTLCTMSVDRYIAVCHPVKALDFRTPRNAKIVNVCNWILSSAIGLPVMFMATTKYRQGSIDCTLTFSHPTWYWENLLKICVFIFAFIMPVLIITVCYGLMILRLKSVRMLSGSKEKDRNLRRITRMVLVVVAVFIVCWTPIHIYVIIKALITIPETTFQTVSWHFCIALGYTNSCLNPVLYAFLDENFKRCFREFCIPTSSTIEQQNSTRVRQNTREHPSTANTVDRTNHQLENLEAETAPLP

A word on the Ki: it is the dissociation constant of the complex between target and ligand, obtained from inhibition or displacement. Read a high Ki as lower affinity. `NC(=O)CN(CCc1ccccc1)C(=O)CN(C(=O)CNCCc1ccccc1)c1ccc(-c2ccccc2)cc1`: the Ki in assay [1] amounted to 4 nM. In turn, `CCCCCN(CC(=O)N(CCc1ccc(O)cc1)CC(N)=O)C(=O)CNCC(c1ccccc1)c1ccccc1` gave an inhibition constant (Ki) at Mu-type opioid receptor of 46 nM. In the case of `COc1ccc(CN(CC(=O)N(CCc2ccc(O)cc2)CC(N)=O)C(=O)CNCC(c2ccccc2)c2ccccc2)cc1OC`, the inhibition constant Ki at Mu-type opioid receptor came out at 31 nM.

Turning to `NC(=O)CN(CCc1ccccc1)C(=O)CN(C(=O)CNCCc1ccc(O)cc1)c1ccc(-c2ccccc2)cc1`, the inhibition constant (Ki) in assay [2] was found to be 5 nM.

Turning to `NC(=O)CN(CCc1ccccc1)C(=O)CN(C(=O)CNCCc1ccc(O)cc1)c1ccc(Oc2ccccc2)cc1`, the Ki in assay [3] worked out at 140 nM.

Consider `NC(=O)CN(CCc1ccc(O)cc1)C(=O)CN(Cc1ccc2c(c1)OCO2)C(=O)CNCC(c1ccccc1)c1ccccc1`, for which the Ki on Mu-type opioid receptor came to 6 nM. `NC(=O)CN(C(=O)CN(C(=O)CNCCc1ccc(O)cc1)c1ccc(-c2ccccc2)cc1)c1ccc(-c2ccccc2)cc1` displayed a Ki in assay [3] of 310 nM.
